# Results: patent EP1043319A1, “NOVEL ALKYLAMINO DERIVATIVES” (MITSUBISHI CHEMICAL CORPORATION, priority 1997, dated 1999)
# Counter-ions that a name gives are not always drawn.
# Molecular target: T1, Sigma 2 (Rattus norvegicus, UniProt Q5U3Y7)
# T1 sequence (Q5U3Y7 1-176): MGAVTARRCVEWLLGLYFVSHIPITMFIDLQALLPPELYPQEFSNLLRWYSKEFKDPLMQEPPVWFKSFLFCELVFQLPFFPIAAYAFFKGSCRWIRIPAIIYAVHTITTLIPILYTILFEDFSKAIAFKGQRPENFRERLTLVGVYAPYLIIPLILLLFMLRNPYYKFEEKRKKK
# Assay: not given
# Conditions: read-out: Sigma 2 Ki; [^3H]-DTG 1 nM, 500 nM pentazocine, crude P2 membrane fraction from rat livers, 50 mM Tris-HCl pH 7.4, 25°C, 2 hours
row,Ki [nM],SMILES
1,35,"N=c1sc2cc(Cl)ccc2n1CC1CCN(C[C@H](O)c2ccc(F)cc2)CC1 (racemic) [Example 3, (R,S)-1-(4-Fluorophenyl)-2-[4-(6-chloro-2-iminobenzothiazolin-3-ylmethyl)-piperidin-1-yl]ethanol dihydrochloride]"

# Molecular target: T1, Sigma 2
# Assay: biochemical
# Conditions: not given
row,Ki [nM],SMILES
1,13,"O=C(CN1CCC(Cn2c(=O)sc3cc([N+](=O)[O-])ccc32)CC1)c1ccc(F)cc1 [Example 35, 3-[[1-[2-(4-Fluorophenyl)-2-oxoethyl]-4-piperidinyl]methyl]-6-nitro-2-oxobenzothiazoline hydrochloride]"
2,9.3,"CC(=O)N=c1sc2cc(Cl)ccc2n1CC1CCN(CC(=O)c2ccc(F)cc2)CC1 [Example 9, 3-[[1-[2-(4-Fluorophenyl)-2-oxoethyl]-4-piperidinyl]methyl]-6-chloro-2-acetyliminobenzothiazoline hydrochloride]"
3,17,"CN=c1sc2cc(Cl)ccc2n1CC1CCN(C[C@H](O)c2ccc(F)cc2)CC1 [Example 27, (R)-1-(4-Fluorophenyl)-2-[4-(6-chloro-2-methyliminobenzothiazolin-3-yl-methyl)piperidin-1-yl]ethanol dihydrochloride]"
4,23,"Cc1ccc2c(c1)sc(=N)n2CC1CCN(CC(=O)c2ccc(F)cc2)CC1 [Example 18, 3-[[1-[2-(4-Fluorophenyl)-2-oxoethyl]-4-piperidinyl]methyl]-6-methyl-2-iminobenzothiazoline dihydrochloride]"
5,28,"N=c1sc2ccccc2n1CC1CCN(CC(=O)c2ccc(F)cc2)CC1 [Example 15, 3-[[1-[2-(4-Fluorophenyl)-2-oxoethyl]-4-piperidinyl]methyl]-2-iminobenzothiazoline dihydrochloride]"
6,31,"O=c1sc2cc([N+](=O)[O-])ccc2n1CC1CCN(CC(O)c2ccc(F)cc2)CC1 (stereo not drawn) [Example 36, 1-(4-Fluorophenyl)-2-[4-(6-nitro-2-oxobenzothiazolin-3-ylmethyl)piperidin-1-yl]ethanol hydrochloride]"
7,6.3,"O=C(CN1CCC(Cn2c(=O)sc3cc(Br)ccc32)CC1)c1ccc(F)cc1 [Example 31, 3-[[1-[2-(4-Fluorophenyl)-2-oxoethyl]-4-piperidinyl]methyl]-6-bromo-2-oxobenzothiazoline hydrochloride]"
8,3.1,"O=C(CN1CCC(Cn2c(=O)sc3ccc(Cl)cc32)CC1)c1ccc(F)cc1 [Example 39, 3-[[1-[2-(4-Fluorophenyl)-2-oxoethyl]-4-piperidinyl]methyl]-5-chloro-2-oxobenzothiazoline hydrochloride]"
9,17,"CN=c1sc2cc(Cl)ccc2n1CC1CCN(CC(=O)c2ccc(S(N)(=O)=O)cc2)CC1 [Example 21, 3-[[1-[2-(4-Aminosulfonylphenyl)-2-oxoethyl]-4-piperidinyl]methyl]-6-chloro-2-methyliminobenzothiazoline dihydrochloride]"
10,7.3,"N=c1sc2cc(C(F)(F)F)ccc2n1CC1CCN(CC(=O)c2ccc(F)cc2)CC1 [Example 23, 3-[[1-[2-(4-Fluorophenyl)-2-oxoethyl]-4-piperidinyl]methyl]-2-imino-6-trifluoromethylbenzothiazoline dihydrochloride]"
11,21,"N=c1sc2cc(F)ccc2n1CC1CCN(CC(=O)c2ccc(F)cc2)CC1 [Example 19, 3-[[1-[2-(4-Fluorophenyl)-2-oxoethyl]-4-piperidinyl]methyl]-6-fluoro-2-iminobenzothiazoline dihydrochloride]"
12,4.5,"O=C(CN1CCC(Cn2c(=O)sc3cc(Cl)ccc32)CC1)c1ccc(F)cc1 [Example 33, 3-[[1-[2-(4-Fluorophenyl)-2-oxoethyl]-4-piperidinyl]methyl]-6-chloro-2-oxobenzothiazoline hydrochloride]"
13,19,"CN=c1sc2cc(Cl)ccc2n1CC1CCN(C[C@@H](O)c2ccc(F)cc2)CC1 [Example 28, (S)-1-(4-Fluorophenyl)-2-[4-(6-chloro-2-methyliminobenzothiazolin-3-yl-methyl)piperidine-1-yl]ethanol dihydrochloride]"
14,7,"N=c1sc2cc(Cl)ccc2n1CC1CCN(CC(=O)c2ccc(F)cc2)CC1 [Example 2, 3-[[1-[2-(4-Fluorophenyl)-2-oxoethyl]-4-piperidinyl]methyl]-6-chloro-2-iminobenzothiazoline dihydrochloride]"

row,SMILES,Ki [nM]
1,"N=c1sc2cc(Cl)ccc2n1CC1CCN(CC(O)C23CC4CC(CC(C4)C2)C3)CC1 (racemic) [Example 1, (R,S)-1-(1-Adamantyl)-2-[4-(6-chloro-2-iminobenzothiazolin-3-ylmethyl)piperidin-1-yl] ethanol dihydrochloride]",8.7
2,"CN=c1sc2cc(Cl)ccc2n1CC1CCN(CC(O)c2ccc(F)cc2F)CC1 (racemic) [Example 22, (R,S)-1-(2,4-Difluorophenyl)-2-[4-(6-chloro-2-methyliminobenzothiazolin-3-ylmethyl)piperidin-1-yl]ethanol dihydrochloride]",9.4
3,"CN=c1sc2cc(Cl)ccc2n1CCCCN(C)CC(O)c1ccc(F)cc1 (racemic) [Example 30, (R,S)-1-(4-Fluorophenyl)-2-[[N-[4-(6-chloro-2-methyliminobenzothiazolin-3-yl)butyl]-N-methyl]amino]ethanol dihydrochloride]",25
4,"O=c1sc2cc(Br)ccc2n1CC1CCN(CC(O)c2ccc(F)cc2)CC1 (racemic) [Example 32, (R,S)-1-(4-Fluorophenyl)-2-[4-(6-bromo-2-oxobenzothiazolin-3-ylmethyl)-piperidin-1-yl]ethanol hydrochloride]",4
5,"O=c1sc2ccc(Cl)cc2n1CC1CCN(CC(O)c2ccc(F)cc2)CC1 (racemic) [Example 40, (R,S)-1-(4-Fluorophenyl)-2-[4-(5-chloro-2-oxobenzothiazolin-3-ylmethyl)piperidin-1-yl]ethanol hydrochloride]",4.7
6,"N=c1sc2cc(Cl)ccc2n1CC1CCN(CC(O)c2cccc(F)c2)CC1 (racemic) [Example 11, (R,S)-1-(3-Fluorophenyl)-2-[4-(6-chloro-2-iminobenzothiazolin-3-yl-methyl)piperidin-1-yl]ethanol dihydrochloride]",36
7,"CN=c1sc2cc(Cl)ccc2n1CC1CCN(CC(O)c2ccc(F)cc2)CC1 (racemic) [Example 5, (R,S)-1-(4-Fluorophenyl)-2-[4-(6-chloro-2-methyliminobenzothiazolin-3-yl-methyl)piperidin-1-yl]ethanol dihydrochloride]",7.2
8,"N=c1sc2cc(Cl)ccc2n1CC1CCN(CC(O)c2ccc(F)c(F)c2)CC1 (racemic) [Example 6, (R,S)-1-(3,4-Difluorophenyl)-2-[4-(6-chloro-2-iminobenzothiazolin-3-yl-methyl)piperidin-1-yl]ethanol dihydrochloride]",25
9,"CN=c1sc2cc(Cl)ccc2n1CC1CCN(CC(=O)c2ccc(F)cc2)CC1 [Example 4, 3-[[1-[2-(-Fluorophenyl)-2-oxoethyl]-4-piperidinyl]methyl]-6-chloro-2-methyliminobenzothiazoline dihydrochloride]",4
